These results are taken from patent publication US9144573B2, “Prostaglandin transporter inhibitors” (Albert Einstein College of Medicine of Yeshiva University, priority 2006, dated 2015).

SMILES strings stand for the structures. Entries after “also recorded” stand apart in the source; their conditions may differ.

One data set has as its system EP4. The data set can be described thus: PGE2 binding to EP4 in membranes of MDCK cells expressing PGT. The format is cell-based, human. The note with it: 5 μM, 10 minutes at 37° C. The protocol:
EP4 expression in MDCK cells that constitutively express PGT was tested by determining PGE2 binding to the cells. Wild type MDCK cells and MDCK cells stably expressing PGT were transiently transfected with human cDNA of EP4 (UMR cNDA Resource Center, www.cdna.org). About 30 hours after transfection, the cells were incubated in Waymouth buffer containing 0 and 20 nM of unlabeled PGE2, and either 4% vehicle (DMSO) or 5 μM T26A, for 10 minutes at 37° C. The cells were then washed with PBS buffer and lysed the cells with lysing buffer containing 10 mM TrisHCl, pH, 7.5, 5 mM EDTA, 100 nM okadaic acid, and 20 μM indomethacin. The cells were then harvested and homogenized using a Potter-Elvehiem homogenizer in an ice cold solution containing 10 mM Tris-HCl, pH. 7.4, 1 mM EDTA, 0, 1 mM phenylmethylsulfonyl fluoride, 20 μM indomethacin, then centrifuged the homogenate at 800 g for 5 minutes. The supernatant was transferred to another tube and centrifuged at 19000 rpm for 45 minutes. The supernatant was then discarded and the pellets washed with buffer A containing 20 mM HEPES-NaOH, pH. […] EP4 bound to ^3H-PGE2 were quantified as described by Negishi et al., 1987. Nonspecific binding was determined by using 1000-fold excess of unlabeled PGE2 in the incubation mixture. The specific binding was calculated by subtracting the nonspecific bind value from the total binding value (Nishigaki et al., 1996).

Data set [1] can be described thus: In vivo test of acute T26A toxicity. More on the design: species or system mice. The note with it: 100 uL intraperitoneal. The protocol: All mice were male. They received one intraperitoneal injection. The injected volume was 100 uL to all of them, 14 hours after injection, they were all alive, and moved and acted normally.
The nature of data set [2]: Chronic oral administration in drinking water: blood PGE2, urine PGE2, bleeding time. The data set is classed as in vivo, mice. The note with it: 2 mM in drinking water, 16 days. The method, then:
Regular water, vehicle (2% DMSO and 2% cremophor) in drinking water, or 2 mM T26A in drinking water was administered to 17 week old mice for 16 days. At the end of the experiment, we withdrew blood by cardiac puncture. PGE2 in blood samples was measured by using PGE2 EIA kit from Caymanchem.
The mice described above pertaining to FIG. 17 were placed in metabolic cages. Six days after they adjusted to the caged condition (on regular diet and water) regular drinking water, vehicle (2% DMSO and 2% cremophor) in drinking water, or 2 mM T26A in drinking water was administered for 16 days. Urine was collected daily. PGE2 in urine samples was measured using PGE2 EIA kit from Caymanchem. […] This is also consistent with the FIG. 8 model. Inhibiting PGE2 transport into the cell reduces its intracellular degradation such that more is secreted without intracellular degradation.
At the end of the experiment shown in FIGS. 17-18, bleeding time was measured using the tail cut method. About 1 cm tails of restrained mice were cut off; the diameter of the cut was kept the same for all mice. The emerging blood was blotted every 15 seconds without touching the wound. Bleeding time was measured as the point at which bleeding had stopped for 1 minute. Results are shown graphically in FIG. 19. […] It is believed that the blockade of endothelial PCT allows intravascular accumulation of PGE2 or prostacyclin, either of which can inhibit platelet aggregation.

Data set [3] can be described thus: Systemic BP after IV injection in anesthetized WKY and SHR rats. The data set is classed as in vivo. The protocol: The effect of T26 IV injections on systemic BP in anesthetized rats of a control strain (WKY) and the Spontaneously Hypertensive Rat (SHR) strain was evaluated.
Data set [4] is described as follows: Degradation of exogenously-administered PGE2. The data set is classed as in vivo, rats. The note with it: 300 μL of 1 mM IV, PGE2 injected ten minutes later. The protocol:
Either 300 μL vehicle (4% DMSO and 4% cremophor in water) or 300 μL of 1 mM T26A was injected into the jugular vein of anesthetized rats (300-325 g weight). Ten minutes later 100 μL of 1 ng/μL PGE2 was injected. One mL blood was withdrawn from the carotid artery at 1, 3, 5, and 10 min after PGE2 injection. PGE2 in blood samples was measured using PGE2 EIA kit from Caymanchem. […] This is also consistent with the FIG. 8 model. Inhibiting PGE2 transport into the cell reduces its intracellular degradation.

The nature of data set [5]: Endogenous PGE2 in circulating blood after jugular vein injection. The format is in vivo, rats. The note with it: 300 μL of 1 mM, blood 10 minutes later. The method, then:
Either 300 μL vehicle (4% DMSO and 4% cremophor in water) or 300 μL of 1 mM T26A was injected into the jugular vein of anesthetized rats (300-325 g weight). One mL of blood was obtained from the carotid artery 10 minutes later, PGE2 in blood samples was measured using PGE2 EIA kit from Caymanchem. […] This finding is consistent with the model advanced in Example 2 (FIG. 8). Since PGT transports PGE2 into the cell, inhibiting PGT would be expected to inhibit removal of PGE2 from blood to be internalized and degraded.

As to `[N-]=[N+]=NCCOCCOCCNC(=O)c1ccc(Nc2nc(NCCOCCOCCNC(=O)c3ccccc3)nc(Nc3ccc(O)cc3)n2)cc1` [T26A], the “effect on PGT-induced increase of PGE2 binding to EP4” value with EP4 is reported as “abrogates this effect”. The Condition result is “Appeared normal” in data set [1] (6 mM, 3% DMSO, 3% Cremophor in water); “More actively than mice #1,; also recorded: More active than mice #1, #4” in data set [1] (25 mM, 5% DMSO, 5% Cremophor in water); “Rarely moved for the first” in data set [1] (250 mM in 100% DMSO). In addition, the “plasma PGE2 levels” value in data set [2] (mice) is recorded as “increased plasma PGE2 levels four-fold”. Moreover, the “urinary excretion of endogenous PGE2” value in data set [2] (mice) was “increased urinary excretion of endogenous PGE2; also recorded: increases PGE2 excretion in urine”. Further, the bleeding time result in data set [2] (tail cut method) is listed as “increases bleeding time”. For the same compound, the systemic blood pressure result in data set [3] was “reduced the blood pressure of both rats”. Also, the “degradation of exogenously-administered PGE2” value in data set [4] is recorded as “inhibited PGE2 degradation; also recorded: reduces the degradation”. In data set [5], the “plasma PGE2 concentrations” value is recorded as “greater than two-fold increase; also recorded: increases endogenous PGE2”.
